According to PMC12396409, “Screening and hit evaluation of a microbial metabolite library against the pathogenic Plasmodium falciparum and Toxoplasma gondii parasites” (International Journal for Parasitology: Drugs and Drug …, 2025):
Like-named read-outs stand apart in the source and are kept apart here.

Tests used:
[1] = tested on: P. falciparum 3D7 parasites; assay: P. falciparum growth inhibition assay, 1-cycle (72 h treatment), SYBR DNA staining (library screen at 2 μg/mL and dose-response); assay type: cell-based, Plasmodium falciparum; conditions: 72 h; for activity at 2 µg/mL: Plasmodium falciparum, screen at 2 μg/mL; for Pf_72h_%Growth_Rep1 / Pf_72h_%Growth_Rep2: % growth
[2] = tested on: P. falciparum 3D7 parasites; assay: P. falciparum growth inhibition assay, 2-cycle (120 h treatment), delayed-death screen and dose-response; assay type: cell-based, Plasmodium falciparum; conditions: 120 h; for activity at 2 µg/mL: Plasmodium falciparum, screen at 2 μg/mL; for Pf_120h_%Growth_Rep1 / Pf_120h_%Growth_Rep2: % growth
[3] = tested on: T. gondii RH strain (RH-Tub-eYFP) tachyzoites; assay: microbe, parasite or virus in culture; assay type: cell-based, Toxoplasma gondii; conditions: 72 h, 72 h; for percent parasite growth at 2 µg/mL: Toxoplasma gondii, screen at 2 μg/mL; for Tg_72h_%Growth_Rep1 / Tg_72h_%Growth_Rep2: % growth
[4] = 3D7, P. falciparum, replicate 1, read-out: Pf_72h_%Growth_Rep1
[5] = 3D7, P. falciparum, replicate 2, read-out: Pf_72h_%Growth_Rep2
[6] = 3D7, P. falciparum, replicate 1, read-out: Pf_120h_%Growth_Rep1
[7] = 3D7, P. falciparum, replicate 2, read-out: Pf_120h_%Growth_Rep2
[8] = T. gondii, replicate 1, read-out: Tg_72h_%Growth_Rep1
[9] = T. gondii, replicate 2, read-out: Tg_72h_%Growth_Rep2
[10] = library screen at 2 μg/mL, replicate 1
[11] = library screen at 2 μg/mL, replicate 2
[12] = P. falciparum, parasite screen 2 μg/mL, replicate 1
[13] = P. falciparum, parasite screen 2 μg/mL, replicate 2
[14] = T. gondii, parasite screen 2 μg/mL, replicate 1
[15] = T. gondii, parasite screen 2 μg/mL, replicate 2

Row | Compound | activity at 2 µg/mL [1, 4] [%] | activity at 2 µg/mL [1, 5] [%] | activity at 2 µg/mL [2, 6] [%] | activity at 2 µg/mL [2, 7] [%] | percent parasite growth at 2 µg/mL [3, 8] [%] | percent parasite growth at 2 µg/mL [3, 9] [%] | Pf_72h_%Growth_Rep1 [1, 10] [%] | Pf_72h_%Growth_Rep2 [1, 11] [%] | Pf_120h_%Growth_Rep1 [2, 10] [%] | Pf_120h_%Growth_Rep2 [2, 11] [%] | Tg_72h_%Growth_Rep1 [3, 10] [%] | Tg_72h_%Growth_Rep2 [3, 11] [%] | further results
1 | CCC[C@H]1CC2=C(C[C@@H](CC)CC3=C1C(=O)OC3=O)C(=O)OC2=O [Byssochlamic acid] | 89.8 | 83.3 | 129 | 88.1 | 92.1 | 94.4 | – | – | – | – | – | – | –
2 | CCCCCC[C@H]1C(=O)O[C@H](C)[C@@H](O)/C=C/C=C/C=C/C=C/C=C(\C)[C@@H](O)C[C@H](O)C[C@H](O)C[C@H](O)C[C@H](O)C[C@H](O)C[C@@H]1O [Filipin II] | – | – | – | – | – | – | 85.18 | 87.84 | 90.65 | 90.94 | 129.59 | 103.40 | –
3 | CCC1C=CC2C=C(C)C(OC3CC(C)(O)C(NC(C)=O)C(C)O3)C(C)C=C(C)C3C=CC4C(OC5CC(O)C(OC6CC(OC7CCC(O)C(C)O7)C(OC7CC(O)C(O)C(C)O7)C(C)O6)C(C)O5)C(C)CC(C)C4C3(C)C(O)=C3C(=O)OC2(C1)C3=O (stereo not shown) [Saccharocarcin A] | – | – | – | – | – | – | – | – | – | – | – | – | Pf_72h_%Growth_Rep1 [1, 12]: 25.38%; Pf_72h_%Growth_Rep2 [1, 13]: 12.51%; Pf_120h_%Growth_Rep1 [2, 12]: 14.27%; Pf_120h_%Growth_Rep2 [2, 13]: 13.84%; Tg_72h_%Growth_Rep1 [3, 14]: -0.34%; Tg_72h_%Growth_Rep2 [3, 15]: 2.07%
4 | CO[C@H]1C[C@@H]2CC[C@@H](C)[C@@](O)(O2)C(=O)C(=O)N2CCCC[C@H]2C(=O)O[C@H]([C@H](C)C[C@@H]2CC[C@H](n3cnnn3)[C@H](OC)C2)CC(=O)[C@H](C)/C=C(\C)[C@@H](O)[C@@H](OC)C(=O)[C@H](C)C[C@H](C)/C=C/C=C/C=C/1C [Zotarolimus] | 75.7 | 88.3 | 97.5 | 77.1 | 120 | 77.8 | – | – | – | – | – | – | –
5 | COc1cc(-c2oc3c(OC)c(OC)cc(O)c3c(=O)c2OC)ccc1O [Ternatin] | 64 | 81 | 137 | 71.9 | 71.2 | 66.7 | – | – | – | – | – | – | –
6 | Dihydrocyclosporin A | – | – | – | – | – | – | 1.22 | -3.30 | 3.25 | 2.98 | 8.15 | 8.03 | –
7 | CC(=O)NCCc1c[nH]c2ccccc12 [Acetyltryptamine, N-] | – | – | – | – | – | – | 83.66 | 90.45 | 84.03 | 87.17 | 109.38 | 85.68 | –
8 | CC(=O)O[C@@H]1CC[C@@]2(C)[C@@H](CC[C@@H](C)[C@]23Cc2c(O)cc(CO)c(C=O)c2O3)C1(C)C [Stachybotrysin B] | – | – | – | – | – | – | – | – | – | – | – | – | Pf_72h_%Growth_Rep1 [1, 12]: 81.92%; Pf_72h_%Growth_Rep2 [1, 13]: 82.33%; Pf_120h_%Growth_Rep1 [2, 12]: 161.09%; Pf_120h_%Growth_Rep2 [2, 13]: 88.10%; Tg_72h_%Growth_Rep1 [3, 14]: 84.36%; Tg_72h_%Growth_Rep2 [3, 15]: 101.19%
9 | COc1cc(-c2cc3c(c(=O)o2)C[C@]2(O)[C@@]4(C)C(=O)C=CC(C)(C)[C@]4(O)CC[C@@]2(C)O3)cc2c1OCO2 [Territrem A] | – | – | – | – | 104 | 88.7 | – | – | – | – | – | – | Mean ([1]; P. falciparum, 2 μg/mL, mean of both replicates, growth (% of control)): 49.47; activity at 2 µg/mL ([1]; 3D7, 72 h, P. falciparum, replicate 1, read-out: Pf_72h_%Growth_Rep1): 14.3%; activity at 2 µg/mL ([1]; 3D7, 72 h, P. falciparum, replicate 2, read-out: Pf_72h_%Growth_Rep2): 84.6%; activity at 2 µg/mL ([2]; 3D7, 120 h, P. falciparum, replicate 1, read-out: Pf_120h_%Growth_Rep1): 6.66%; activity at 2 µg/mL ([2]; 3D7, 120 h, P. falciparum, replicate 2, read-out: Pf_120h_%Growth_Rep2): 112%
